We go through 31 compounds from patent US20070293512A1, “Condensed Pyrimidine Deriviative and Xanthine Oxidase Inhibitor” (priority 2004, published 2007).

Counter-ions that a name gives are not always drawn.

The test system of data set [1] is in-plasma uric acid value. Kind of data set: In vivo test: in-plasma uric acid value-inhibition after single oral administration to mouse. The settings on record: ICR mouse, blood one hour after administration; for In Vivo (%) TMX-67 (0.3 mg/kg): activity value relative to TMX-67 (0.3 mg/kg), single oral 0.3 mg/kg; for In Vivo (%) allopurinol (3 mg/kg): activity value relative to allopurinol (3 mg/kg), single oral 3 mg/kg. As to the method:
The xanthine oxidase inhibiting action was. further confirmed in vivo tests by measuring the uric acid concentration in a plasma obtained from mouse into which the compound of the invention had been orally administered. See Example 51, Tables 11 and 12.
Pharmacological Experiment 2 (In Vivo Test)
The test compound suspended in 1% methylcellulose solution in an amount of 0.3 mg/kg or 3 mg/kg was administered to unfasted ICR mouse (7 W) by forced single oral administration. The blood was collected from main artery from the mouse under etherization after one hour from the administration. The plasma was separated from the collected blood in the conventional manner. The plasma was then subjected to measurement of uric acid value by the enzyme method by means of an automatic analytical apparatus (7060E), to obtain an in-plasma uric acid value-inhibition ratio in the test sample-administered group as compared with a ratio.obtained in the normal group.
Based on the obtained in-plasma uric acid inhibition ratio, activity values (%) relative to activity values obtained in the simultaneously conducted tests using TMX-67 (0.3 mg/kg) or allopurinol (3 mg/kg).

The target of data set [2] is T1, Cow milk Xanthine Oxidase (Bos taurus, UniProt P80457).
T1 construct: Cow milk Xanthine Oxidase (Roche); purchased Roche; host or cells: cow milk (natural source)
The data set is described as follows: Xanthine oxidase inhibition, in vitro (oxidation of xanthine, absorbance at 290 nm). Type of data set: biochemical. The settings on record: xanthine 250 μM, 50 mM phosphate buffer pH 7.5, 30° C., 10 minutes. As to the method: The xanthine oxidase inhibiting action (in vitro test) of the compound of the invention was confirmed by measuring inhibition of oxidation of xanthine by xanthine oxidase, as described in Example 50. As is clear from Tables 11 and 12, the compounds of the invention show excellent xanthine oxidase inhibiting action.
Pharmacological Experiment 1 (In Vitro Measuring Method)
1. Preparation of Test Sample
The test compound was dissolved in dimethylsulfoxide and diluted with 50 mM phosphate buffer (pH 7.5), to give a solution of a predetermined concentration.
125 μL of each of the solutions of the test compound having different concentrations was added to 1 mL of a solution of Xanthine (SIGMA, 250 μM) in the 50 mM phosphor buffer (pH 7.5). The mixture was then pre-incubated at 30° C. for 5 min. Subsequently, to the pre-incubated mixture was added 125 μL of Cow milk Xanthine Oxidase (Roche) diluted with the 50 mM phosphate buffer (pH 7.5) to 70 mU/mL, and the mixture was subjected to reaction at 30° C. for 10 minutes. Then, 1N hydrochloric acid, (200 μL) was added to the reaction mixture to terminate the reaction. Subsequently, absorbance at OD 290 nm was measured by means of a spectrophotometer (Shimadzu UV-160A)., to obtain a inhibition ratio. The measured inhibition ration was used to obtain […]
The inhibition ratio was calculated according to the following formula: Inhibition ratio (%)=[1−(B−C)/(A−C)]×100 • A: absorbance of control • B: absorbance measured on a sample containing test compound • C: absorbance of blank (Test Results)

T1 sequence (P80457 whole entry): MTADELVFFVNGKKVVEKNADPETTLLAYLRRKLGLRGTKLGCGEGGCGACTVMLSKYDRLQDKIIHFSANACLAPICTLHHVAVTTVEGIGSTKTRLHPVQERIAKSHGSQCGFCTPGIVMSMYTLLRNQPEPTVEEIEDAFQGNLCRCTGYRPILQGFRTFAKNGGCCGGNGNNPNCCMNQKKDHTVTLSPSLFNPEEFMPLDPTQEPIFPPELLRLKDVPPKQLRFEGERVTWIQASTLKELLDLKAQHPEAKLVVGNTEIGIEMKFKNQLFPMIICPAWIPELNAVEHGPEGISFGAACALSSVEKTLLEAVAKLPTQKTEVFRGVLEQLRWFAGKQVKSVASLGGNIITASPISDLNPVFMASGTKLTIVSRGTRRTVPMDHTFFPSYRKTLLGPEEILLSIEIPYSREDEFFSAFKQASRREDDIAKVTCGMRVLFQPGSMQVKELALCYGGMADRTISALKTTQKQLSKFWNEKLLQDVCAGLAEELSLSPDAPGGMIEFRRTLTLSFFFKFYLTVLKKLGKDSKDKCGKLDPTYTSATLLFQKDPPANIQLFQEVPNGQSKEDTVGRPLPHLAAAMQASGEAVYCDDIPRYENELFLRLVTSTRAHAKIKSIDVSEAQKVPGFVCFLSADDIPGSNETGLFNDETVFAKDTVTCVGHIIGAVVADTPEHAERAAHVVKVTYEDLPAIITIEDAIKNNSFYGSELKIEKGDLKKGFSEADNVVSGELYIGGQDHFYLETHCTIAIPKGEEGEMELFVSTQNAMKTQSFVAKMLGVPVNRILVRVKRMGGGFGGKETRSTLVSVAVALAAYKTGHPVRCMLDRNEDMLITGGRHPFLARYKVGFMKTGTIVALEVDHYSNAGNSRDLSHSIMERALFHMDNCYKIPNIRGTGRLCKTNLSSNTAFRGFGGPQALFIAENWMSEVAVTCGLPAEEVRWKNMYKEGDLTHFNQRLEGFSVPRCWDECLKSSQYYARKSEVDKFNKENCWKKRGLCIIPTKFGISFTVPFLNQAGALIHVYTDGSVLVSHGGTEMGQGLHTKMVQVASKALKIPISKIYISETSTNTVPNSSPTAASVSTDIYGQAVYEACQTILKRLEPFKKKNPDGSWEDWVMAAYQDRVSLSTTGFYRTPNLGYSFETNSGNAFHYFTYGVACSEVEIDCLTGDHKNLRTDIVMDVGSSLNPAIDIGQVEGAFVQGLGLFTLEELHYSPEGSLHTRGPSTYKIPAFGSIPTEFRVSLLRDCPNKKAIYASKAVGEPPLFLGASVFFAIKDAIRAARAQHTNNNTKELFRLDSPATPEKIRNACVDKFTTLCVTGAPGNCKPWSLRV

Consider `O=[N+]([O-])c1cc(-c2nc3c(O)ncnc3s2)ccc1Oc1cccnc1.[K]` [Example 33, 4-Hydroxy-2-[3-nitro-4-(3-pyridyloxy)-phenyl]thiazolo[5,4-d)pyrimidine potassium salt], for which, in data set [1], the “In Vivo (%) TMX-67 (0.3 mg/kg)” value was found to be 48%.

By IC50 is commonly meant the concentration that gives 50% inhibition. In data set [2], `O=[N+]([O-])c1cc(-c2nc3c(O)ncnc3s2)ccc1Oc1ccccc1F` [Example 21, 2-[4-(2-Fluorophenoxy)-3-nitrophenyl]-4-hydroxythiazolo[5,4-d]pyrimidine] came in with an IC50 of 0.0054 µM.

`O=[N+]([O-])c1cc(-c2nc3c(O)ncnc3s2)ccc1Oc1ccc(C(F)(F)F)cc1` [Example 16, 4-Hydroxy-2-[3-nitro-4-[4-(trifluoromethyl)-phenoxy]phenyl]thiazolo[5,4-d]pyrimidine] registered a concentration for half-maximal inhibition (IC50) in data set [2] of 0.0526 µM.

Take `O=[N+]([O-])c1cc(-c2nc3c(O)ncnc3s2)ccc1Oc1ccc(Oc2ccccc2)cc1` [Example 28, 2-[3-Nitro-4-(4-phenoxyphenoxy)phenyl]-4-hydroxythiazolo[5,4-d]pyrimidine]: the half-inhibitory concentration (IC50) in data set [2] amounted to 0.0676 µM.

Compound `N#Cc1cc(-c2nc3c(O)ncnc3s2)ccc1Oc1ccc(Cl)cc1` [Example 23, 2-[4-(4-Chlorophenoxy)-3-cyanophenyl]-4-hydroxythiazolo[5,4-d]pyrimidine] gave a 50% inhibitory concentration (IC50) in data set [2] of 0.027 µM.

As for `N#Cc1cc(-c2nc3c([O-])ncnc3s2)ccc1Sc1ccc(F)cc1.[K+]` [Example 43, 2-[3-Cyano-4-(4-fluorophenylthio)phenyl]-4-hydroxythiazolo[5,4-d]pyrimidine potassium salt], the “In Vivo (%) TMX-67 (0.3 mg/kg)” value in data set [1] came to 185%.

In turn, `O=[N+]([O-])c1cc(-c2nc3c(O)ncnc3s2)ccc1Oc1ccc(-c2ccccc2)cc1` [Example 31, 4-Hydroxy-2-[3-nitro-4-(4-phenylphenoxy)-phenyl]thiazolo[5,4-d]pyrimidine] had an IC50 in data set [2] of 0.0368 µM.

Turning to `COc1ccc(Oc2ccc(-c3nc4c(O)ncnc4s3)cc2[N+](=O)[O-])cc1` [Example 14, 2-[4-(4-Methoxyphenoxy)-3-nitrophenyl]-4-hydroxythiazolo[5,4-d]pyrimidine], the midpoint of inhibition in data set [2], the IC50, lay at 0.0085 µM.

Consider `N#Cc1cc(-c2nc3c(O)ncnc3s2)ccc1Sc1ccc(Cl)cc1` [Example 9, 2-[4-(4-Chlorophenylthio)-3-cyanophenyl]-4-hydroxythiazolo[5,4-d]pyrimidine], for which the midpoint of inhibition in data set [2], the IC50, lay at 0.0146 µM.

Turning to `O=C([O-])c1ccc(Oc2ccc(-c3nc4c([O-])ncnc4s3)cc2[N+](=O)[O-])cc1.[K+].[K+]` [Example 27, 2-[4-(4-Carboxyphenoxy)-3-nitrophenyl]-4-hydroxythiazolo[5,4-d]pyrimidine dipotassium salt], the “In Vivo (%) allopurinol (3 mg/kg)” value in data set [1] was found to be 36%.

As for `O=[N+]([O-])c1cc(-c2nc3c([O-])ncnc3s2)ccc1Oc1ccc(F)cc1.[K+]` [Example 13, 2-[4-(4-Fluorophenoxy)-3-nitrophenyl]-4-hydroxythiazolo[5,4-d]pyrimidine potassium salt], the “In Vivo (%) TMX-67 (0.3 mg/kg)” value in data set [1] was found to be 141%.

What is called melting point is the temperature, or range, at which the solid turns liquid. In the case of `O=[N+]([O-])c1cc(-c2nc3c(O)ncnc3s2)ccc1Oc1ccccc1Cl` [Example 18, 2-[4-(2-Chlorophenoxy)-3-nitrophenyl]-4-hydroxythiazolo[5,4-d]pyrimidine], the melting point was 283 to 288 °C (dec.). For the same compound, the concentration for half-maximal inhibition (IC50) in data set [2] was 0.008 µM.

`O=[N+]([O-])c1cc(-c2nc3c(O)ncnc3s2)ccc1Sc1ccc(Cl)cc1` [Example 3, 2-[4-(4-Chlorophenylthio)-3-nitrophenyl]-4-hydroxythiazolo[5,4-d]pyrimidine potassium salt] had a half-inhibitory concentration (IC50) in data set [2] of 0.0192 µM.

As for `O=[N+]([O-])c1cc(-c2nc3c(O)ncnc3s2)ccc1Oc1cccc(F)c1` [Example 20, 2-[4-(3-Fluorophenoxy)-3-nitrophenyl]-4-hydroxythiazolo[5,4-d]pyrimidine], the melting point was 279 to 281 °C (dec.). For the same compound, 0.0102 µM corresponded to half-maximal inhibition in data set [2] (IC50).

Regarding “2-[4-(4-Chlorophenylthio)-3-cyanophenyl]-4-hydroxythiazolo[5,4-d]pyrimidine potassium salt [Example 10]”, 0.0226 µM corresponded to half-maximal inhibition in data set [2] (IC50). For the same compound, the “In Vivo (%) TMX-67 (0.3 mg/kg)” value in data set [1] is listed as 84%.

For `O=[N+]([O-])c1cc(-c2nc3c(O)ncnc3s2)ccc1Sc1ccc(Cl)cc1` [Example 2, 2-[4-(4-Chlorophenylthio)-3-nitrophenyl]-4-hydroxythiazolo[5,4-d]pyrimidine], in data set [2], the IC50 came to 0.0138 µM.

`O=[N+]([O-])c1cc(-c2nc3c(O)ncnc3s2)ccc1Oc1ccc(Cl)c2ccccc12` [Example 11, 2-[4-(4-Chloro-1-naphthoxy)-3-nitrophenyl]-4-hydroxythiazolo[5,4-d]pyrimidine] displayed a concentration for half-maximal inhibition (IC50) in data set [2] of 0.0519 µM. Compared with the last compound, the IC50 is about 3.8-fold higher.

In data set [2], `O=[N+]([O-])c1cc(-c2nc3c(O)ncnc3s2)ccc1Sc1ccccc1` [Example 4, 4-Hydroxy-2-(3-nitro-4-phenylthiophenyl)thiazolo[5,4-d]pyrimidine] displayed a 50% inhibitory concentration (IC50) of 0.0186 µM.

As for `COc1ncnc2sc(-c3ccc(Oc4ccc(F)cc4)c(C#N)c3)nc12` [Example 40, 2-[3-Cyano-4-(4-fluorophenoxy)phenyl]-4-methoxythiazolo[5,4-d]pyrimidine], in data set [1], the “In Vivo (%) TMX-67 (0.3 mg/kg)” value is on record as 30% and the “In Vivo (%) allopurinol (3 mg/kg)” value came to 107%.

On to “2-[3-Cyano-4-(4-fluorophenoxy)phenyl]-4-hydroxythiazolo[5,4-d]pyrimidine potassium salt [Example 37]”, for which the “In Vivo (%) TMX-67 (0.3 mg/kg)” value in data set [1] is reported as 107%.

For the compound “2-[4-(4-Chlorophenoxy)-3-cyanophenyl]-4-hydroxythiazolo[5,4-d]pyrimidine potassium salt [Example 24]”, the IC50 in data set [2] amounted to 0.0185 µM. Besides, in data set [1], the “In Vivo (%) TMX-67 (0.3 mg/kg)” value was determined as 28%.

The compound `O=[N+]([O-])c1cc(-c2nc3c(O)ncnc3s2)ccc1Nc1ccccc1` [Example 29, 2-(3-Nitro-4-phenylaminophenyl)-4-hydroxy-thiazolo[5,4-d]pyrimidine] returned an IC50 in data set [2] of 0.0246 µM. This lies in the double-digit nanomolar range.

In data set [2], “2-[3-Cyano-4-(2-fluorophenoxy)phenyl]-4-hydroxythiazolo[5,4-d]pyrimidine potassium salt [Example 46]” came in with a concentration for half-maximal inhibition (IC50) of 0.0177 µM. For the same compound, the “In Vivo (%) TMX-67 (0.3 mg/kg)” value in data set [1] is given as 223%.

`O=C(O)c1ccc(Oc2ccc(-c3nc4c(O)ncnc4s3)cc2[N+](=O)[O-])cc1` [Example 26, 2-[4-(4-Carboxyphenoxy)-3-nitrophenyl]-4-hydroxythiazolo[5,4-d]pyrimidine] displayed a half-maximal inhibitory concentration (IC50) in data set [2] of 0.0097 µM.

Compound `CC(C)c1ccc(Oc2ccc(-c3nc4c(O)ncnc4s3)cc2[N+](=O)[O-])cc1` [Example 30, 4-Hydroxy-2-[4-(4-isopropylphenoxy)-3-nitro-phenyl]thiazolo[5,4-d]pyrimidine] had an IC50 in data set [2] of 0.119 µM.

Turning to `N#Cc1cc(-c2nc3c([O-])ncnc3s2)ccc1Oc1ccccc1.[K+]` [Example 49, 2-(3-Cyano-4-phenoxyphenyl)-4-hydroxy-thiazolo[5,4-d]pyrimidine potassium salt], the half-maximal inhibitory concentration (IC50) in data set [2] came to 0.0108 µM. Further, the “In Vivo (%) TMX-67 (0.3 mg/kg)” value in data set [1] stood at 140%.

In data set [2], `COC(=O)c1ccc(Oc2ccc(-c3nc4c(O)ncnc4s3)cc2[N+](=O)[O-])cc1` [Example 25, 4-Hydroxy-2-[4-(4-methoxycarbonylphenoxy)-3-nitrophenyl]thiazolo[5,4-d]pyrimidine] gave an IC50 of 0.0187 µM.

For the compound `O=[N+]([O-])c1cc(-c2nc3c([O-])ncnc3s2)ccc1Oc1ccccc1.[K+]` [Example 8, 2-(3-Nitro-4-phenoxyphenyl)-4-hydroxythia-zolo[5,4-d]pyrimidine potassium salt], in data set [1], the “In Vivo (%) TMX-67 (0.3 mg/kg)” value turned out to be 125%.

The compound `O=[N+]([O-])c1cc(-c2nc3c(O)ncnc3o2)ccc1Oc1ccc(F)cc1` [Example 39, 2-[4-(4-Fluorophenoxy)-3-nitrophenyl]-4-hydroxyoxazolo[5,4-d]pyrimidine potassium salt] registered a half-maximal inhibitory concentration (IC50) in data set [2] of 0.0135 µM. In other words, the double-digit nanomolar range.

`O=[N+]([O-])c1cc(-c2nc3c(O)ncnc3s2)ccc1Oc1cccc(Cl)c1` [Example 17, 2-[4-(3-Chlorophenoxy)-3-nitrophenyl]-4-hydroxythiazolo[5,4-d]pyrimidine] gave an IC50 in data set [2] of 0.0168 µM.

For the compound `O=[N+]([O-])c1cc(-c2nc3c(O)ncnc3s2)ccc1Oc1ccc(O)cc1` [Example 35, 4-Hydroxy-2-[4-(4-hydroxyphenoxy)-3-nitro-phenyl]thiazolo[5,4-d]pyrimidine], the “In Vivo (%) TMX-67 (0.3 mg/kg)” value in data set [1] was 61%.
